Laboratory results reported in patent US7585521B2, “Controlled release ceramic particles, compositions thereof, processes of preparation and methods of use” (Australian Nuclear Science & Technology Organisation, priority 2000, dated 2009).
Values belong to the compound of their own block, whether it stands above or below them.

What was measured:
[1] = Release of dye from sol-gel silica gels/microspheres into demineralised water, UV-visible absorbance; type: physicochemical
Experimental: The release of the dye molecule from the gels was performed in 3 ml of demineralised water and the evolution of the absorbance with time was monitored at a fixed wavelength λmax=485 nm using a UV-visible spectrophotometer (Lambda 40, Perkin Elmer, USA). The wavelength of 485 nm corresponds to the absorbance maximum of Orange II in the visible spectrum.
The plots of fraction of dye released versus time (FIG. 1) were obtained by dividing the actual quantity of dye released by the total mass of dye encapsulated in the gel. For the dry gel, this quantity is calculated by dividing the total quantity of dye in the gel rod by the mass of the gel and multiplying it by the mass of the gel sample used in the release experiments. For the wet gel, the fraction released was obtained experimentally from the final absorbance.
To study the influence of the temperature on the release rate, a known quantity of gel was immersed in 3 ml of demineralised water and the absorbance was monitored at a fixed wavelength of 485 nm. One sample was kept at ambient temperature (i.e. 22° C.) and two others were maintained at 37° C. and 60° C. in thermostated water baths.
The release rates of the Orange II samples were monitored at a fixed wavelength of 485 nm while the release rates of the methyl-violet samples were monitored at 584 nm (corresponding to the absorption peak of methyl-violet in the visible spectrum).

[2] = spray-dried particles produced from bohemite sols; cited from earlier work
[3] = Release of cycloheximide and cis-platin from gels, UV absorbance; type: physicochemical; settings: release from gels in 3 ml of 0.9% NaCl, 300 nm
Experimental: The first series of samples was prepared by mixing 5.51 ml of TMOS (37 mmol), 2.67 ml of either drug solutions (148 mmol of H2O) and 6 ml of methanol (148 mmol). 4 ml aliquots of the solutions were transferred to 5 ml screw capped poly-propylene vials and placed in an oven at 60° C. to gel. Once gelation occurred the samples were aged at 60° C. for 7 days. The cap was then removed and the samples were allowed to dry for 3 days at 60° C.
A second series of samples was prepared by combining 3 ml of TMOS (20 mmol), 2.88 ml of MTMS (20 mmol) and 2.91 ml of the respective drug solution (161 mmol of H2O). These samples were processed as described above.
The release of cycloheximide from a known quantity of gel was investigated in 3 ml of demineralised water and the absorbance was monitored at a fixed wavelength, .λmax=201 nm. The release of cis-platin from a known quantity of gel was investigated in 3 ml of 0.9% NaCl and the absorbance was monitored at a fixed wavelength, λmax=300 nm.

[4] = Degradation of cis-platin in silica gels on aging at 60° C., examined by transmission electron microscopy; type: physicochemical
Experimental: The substitution of metal alkoxides by organically modified silicon alkoxides leads to the replacement of the hydroxyl groups at the surface of the pores by organic moieties (e.g. methyl vinyl, glycidyloxypropyl groups). This prevents interaction between the entrapped bio-molecules and the surface, and potential degradation of the active ingredient. This is illustrated by the encapsulation of cis-platin in silica gels.
A solution containing 20 ml of TMOS (134 mmol), 9.69 ml of cis-platin solution (538 mmol of water) and 21.8 ml of methanol (538 mmol) was stirred for 30 minutes. 4 ml aliquots of the solution were transferred to 5 ml screw capped poly-propylene vials and placed in an oven at 60° C. to gel. Once gelation occurred the samples were aged at 60° C. for 15 days. The cap was then removed and the samples were allowed to dry for 3 days at 60° C.
An identical procedure was used to prepare gels from a solution containing 3 ml of TMOS, 2.88 ml of MTMS and 2.91 ml of cis-platin solution.
After 3 days of aging at 60° C. the gels prepared from TMOS started to darken, ultimately yielding a black gel after 15 days aging. […] The two dry gels were subsequently examined by transmission electron microscopy using a JEOL 201 OF field emission gun microscope.

release rate compared with Orange II ([1]; gels W=4, D=4, aged 15 or 30 days at 60° C., monitored at 584 nm): significantly smaller
Compound: methyl violet

Compound: CN(C)CCCN1c2ccccc2CCc2ccccc21 [imipramine]
release of encapsulated imipramine [2]: released within five minutes

release rate compared with cycloheximide [3]: greater
reaction of cis-platin with the matrix, MTMS substituted gels ([4]; 50% of TMOS substituted by MTMS): prevents any such precipitation
Compound: Cis Pt(NH3)2Cl2 [cis-platin]
reaction of cis-platin with the matrix, silica gels ([4]; encapsulated in silica gels (TMOS)): precipitation of metallic platinum nanoparticles

Compound: O=S(=O)([O-])c1ccc(N=Nc2c(O)ccc3ccccc23)cc1.[Na+] [Orange II, 4-(2-hydroxy-1-napthylazo) benzene sulfonic acid, sodium salt]
release rate versus MTMS content ([1]; 0-50% of TMOS substituted with MTMS, W=4, D=4): decrease with increasing MTMS content
release rate versus drying time and temperature ([1]; gels W=4, D=0, dried 1, 3 or 7 days at ambient, 60° or 104° C.): decrease with increasing time and temperature
pH of maximum release rate ([1]; gels W=4, D=4, dye solution pH 1-11): 7
release rate versus pH, acid catalyst ([1]; gels W=4, D=4, synthesised using acid as a catalyst): increase with increasing pH
release rate versus pH, base catalyst ([1]; gels W=4, D=4, synthesised using base as a catalyst): decrease with increasing pH
release rate versus syneresis time ([1]; gels aged at 60° C. for 0-30 days): increase with syneresis time
release rate of the dye versus W and D ([1]; gels with W = 2-8, D = 0-8, release in demineralised water, 485 nm): increase with increasing W and decreasing D
release rate of microspheres versus drying temperature ([1]; microspheres dried from ambient to 100° C. for 2 days): decreases with increasing drying temperature
release rate versus temperature of the release media ([1]; release at 22° C., 37° C. and 60° C. in demineralised water): increase with increasing temperature
